# Measurements taken from ChEMBL document CHEMBL1150479, “2-(3-hydroxypropoxy)-1,25-dihydroxyvitamin D3 (ED-71), preventive and therapeutic effects on bone mineral loss in ovariectomized rats” (Bioorg Med Chem Lett, 1993).
# Calls of active or inactive are those of the source. No cut-off for these calls is given here.
# How the values were obtained:
# Rattus norvegicus [1] = test: In vivo intestinal calcium absorption was determined against ovariectomized rats; Stimulation; format: functional, organism-based
# Rattus norvegicus [2] = test: In vivo bone calcium mobilization was determined against ovariectomized rats; Stimulation; format: functional, organism-based
# Rattus norvegicus [3] = species on record: Rattus norvegicus; test: In vitro bone resorption against ovariectomized rats; Stimulation; format: functional
# [4] = molecular target: T1, Vitamin D-binding protein (Rattus norvegicus) (UniProt P04276); test: In vitro binding potency against vitamin D binding protein (DBP) in ovariectomized rats
# T1 sequence (whole entry): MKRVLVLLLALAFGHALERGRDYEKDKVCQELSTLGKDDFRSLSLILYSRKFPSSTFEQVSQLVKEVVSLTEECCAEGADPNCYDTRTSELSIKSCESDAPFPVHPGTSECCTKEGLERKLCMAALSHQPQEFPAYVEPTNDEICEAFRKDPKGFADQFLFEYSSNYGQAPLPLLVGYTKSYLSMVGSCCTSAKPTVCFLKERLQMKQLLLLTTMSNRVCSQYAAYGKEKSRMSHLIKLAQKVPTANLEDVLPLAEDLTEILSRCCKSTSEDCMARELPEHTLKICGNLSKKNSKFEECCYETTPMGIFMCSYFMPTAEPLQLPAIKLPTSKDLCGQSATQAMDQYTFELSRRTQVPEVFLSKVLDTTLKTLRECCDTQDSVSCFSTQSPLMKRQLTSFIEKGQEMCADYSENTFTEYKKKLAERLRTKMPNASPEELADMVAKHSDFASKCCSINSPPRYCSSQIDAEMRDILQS
# [5] = molecular target: T2, Vitamin D3 receptor (Rattus norvegicus) (UniProt P13053)
# T2 sequence (whole entry): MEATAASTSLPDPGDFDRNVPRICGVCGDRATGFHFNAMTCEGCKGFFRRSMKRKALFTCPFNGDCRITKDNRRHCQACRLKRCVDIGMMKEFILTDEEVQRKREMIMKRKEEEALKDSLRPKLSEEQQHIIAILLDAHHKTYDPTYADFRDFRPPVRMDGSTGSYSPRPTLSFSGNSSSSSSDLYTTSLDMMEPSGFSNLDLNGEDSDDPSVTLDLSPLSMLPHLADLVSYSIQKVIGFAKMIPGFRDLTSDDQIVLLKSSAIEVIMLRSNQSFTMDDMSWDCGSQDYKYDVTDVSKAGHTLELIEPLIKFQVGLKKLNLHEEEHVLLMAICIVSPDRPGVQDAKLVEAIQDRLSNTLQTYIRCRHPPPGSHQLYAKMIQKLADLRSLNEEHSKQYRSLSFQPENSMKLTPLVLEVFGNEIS
# Description: In vitro binding potency for vitamin D receptor VDR in ovariectomized rats
# Rattus norvegicus [6] = species on record: Rattus norvegicus; test: In vitro bone resorption against ovariectomized rats; Weak stimulation; format: functional
# [7] = molecular target: T2, Vitamin D3 receptor (Rattus norvegicus); test: In vitro binding potency for vitamin D receptor VDR in 8 ovariectomized rats
Binding potency [4],Binding potency [5],Binding potency [7],SMILES,Absorption (Rattus norvegicus [1]),Mobilization (Rattus norvegicus [2]),Resorption (Rattus norvegicus [3]),Resorption (Rattus norvegicus [6])
1,1,,C=C1/C(=C\C=C2/CCC[C@]3(C)[C@@H]([C@H](C)CCCC(C)(C)O)CC[C@@H]23)C[C@@H](O)C[C@@H]1O,Active,Active,Active,
2.7,,1,C=C1/C(=C\C=C2/CCC[C@]3(C)C([C@H](C)CCCC(C)(C)O)CC[C@@H]23)C[C@@H](O)[C@@H](OCCCO)[C@@H]1O (stereo not given in full),Active,Active,,Partially active
